Entries after “also recorded” stand apart in the source; their conditions may differ. Read-outs that look alike come from different tables or passages of the source.
Columns and labels:
[1] = test system: DDC-intoxicated mouse liver; test: Hepatocyte damage in mouse liver upon 3 days exposure to DDC (0.1%), MitoQ versus vitamin E (histology); conditions: MitoQ 12 mg/kg peritoneally, vitamin E 100 mg/kg subcutaneously
Procedure: FIGS. 3a and 3b: Comparison of MitoQ (12 mg/kg of animal;given peritoneally) and vitamin E (100 mg/kg of animal, applied subcutneously) effect on the degree of hepatocyte damage in mouse liver upon short term (3 days) exposure to DDC (0.1%)
Controls receive 300 μPBS only. Vitamin E is given subcutaneously in the same intervals as MitoQ at doses of 40 to 100 mg/kg dissolved in corn oil/PBS (1:5).

[2] = test system: alanine- and aspartate aminotransferase; test: Serum liver enzymes (blood parameters) in intoxicated animals; type: in vivo, mouse; conditions: compared to intoxicated control group
[3] = test system: paracetamol-intoxicated mice livers
Procedure: Mice (8 weeks old) are fed a standard diet. Paracetamol is administered by oral gavage (500 mg/kg of animal). Carprofen is given by intraperitoneal injection (three times every 24 hours) in combination with 0.1% DDC which is included in the diet.
Mice are sacrified at different time-points of intoxication by cervical dislocation and the livers are either immediately snap-frozen in methylbutane precooled with liquid nitrogen for immunofluorescence or fixed in 4% buffered formaldehyde for routine histology and immunohistochemistry.
To evaluate the impact of the antioxidants according to the invention on regression of morphological alterations in early stages of paracetamol-intoxicated mice livers, a group of animals are treated on day one with MitoQ (a mixture of MitoQuinol [10-(3,6-dihydroxy-4,5-dimethoxy-2 methylphenyl)decyl]triphenylphosphonium bromide and MitoQuinone [10-(4,5-dimethoxy-2-methyl-3,6-dioxo-1,4-cyclohexadien-1-yl)decyl]-triphenylphosphonium bromide (provided by Prof. Albin Hermetter, TU Graz, AT), diluted with PBS/1% DMSO in three different concentrations (200 nM, 300 nM and 400 nM) intraperitoneally with maximum administration volume 100 μl (controls receive 100 μl PBS/1% DMSO only). For injections, MitoQ is dissolved in PBS supplemented with sufficient DMSO (preferably 1%) to maintain solubility of antioxidants. Intraperitoneal or i.v. (tail vein) injections are given to pairs of mice and compared with vehicle-injected controls. These correspond to maximum tolerated dose of 20 mg of MitoQ/kg/day (750 nmol) according to Smith R. A. J et al., 2003, PNAS, 100 (9): 5407-5412.
On the second day MitoQ treatment is continued, additionally mice are intoxicated with 500 mg/kg paracetamol diluted with PBS po (maximum administration volume is 300 μl).

[4] = test system: hemoxygenase 1 (HO-1); test: Western blot of hemoxygenase 1 expression in liver extracts of intoxicated mice; type: in vivo, mouse; conditions: densitometry
Procedure: To evaluate hemoxygenase 1 (HO-1) protein expression know to be induced by oxidative stress (Suematsu M. and Ishimura Y., 2000, Hepatology, 31(1): 3-6) standard western blot analysis is performed using protein extracts derived from paracetamol- (or carprofen) intoxicated mice treated simultaneously for 1day (or 3 days) with MitoQ (diluted in 1% DMSO in PBS), vitamin E or just vehicle itself (see protocols in Example 3).
(§1) Liver tissues are resuspended in ice-cold RIPA-buffer (50 mM Tris-HCl pH 7.4, 250 mM NaCl, 0.1% SDS, 1% deoxycholate, 1% NP-40) supplemented with 2 μg/ml leupeptin, 2 μg/ml pepstatin, 2 μg/ml aprotinin, 1 mM phenylmethylsulfonylfluoride (PMSF), and 2 mM dithiothreitol followed by homogenization through sonication (2 bursts of 5 seconds) on ice. After incubation for 20 minutes on ice, the lysates are cleared by two centrifugational steps in a microcentrifuge at 13,000 rpm for 15 minutes at 4° C. and the supernatants are collected. Protein concentrations are determined by the Bradford assay (Biorad) using bovine serum albumin as a standard. Equal amounts of protein (typically 10-30 μg) are separated on a 12% SDS-PAGE gel and transferred electrophoretically to a polyvinylidene diflouride (PVDF) membrane (Hybond-P, Amersham) through Semidry-blotting (TE 70, Amersham). […]

[5] = test system: immortalized hepatocytes (Fa2N-4 or Ea1C-35); test: Reactive oxygen species in immortalized hepatocytes; type: cell-based; conditions: for ROS formation: hepatocytes intoxicated with e.g. paracetamol (10 mM for 2 hours), DDC or BSO, simultaneous treatment at EC50 concentrations
Procedure: Tested hepatocytes are grown in 96-well plates in culture medium (DMEM supplemented with 10% FCS, Gibco) to 80% confluency in the presence of paracetamol, subsequently washed with HBSS and incubated in the dark with DHE (10-50 μM) for 10 minutes at 37° C. Cells are then washed twice with Hank's balanced salt solution (HBSS, Gibco) to remove excess dye. Fluorescence is monitored in a fluorescence microscope (Olympus, Hamburg, Germany).
To determineDCF fluorescence in a microplate reader (Tecan, Crailsheim, Germany), immortalized hepatocytes are grown in 96-well plates to 80% confluency in presence of paracetamol. The cells are then washed twice with Hank's balanced salt solution (HBSS, Gibco) and incubated in the dark with CM-H2DCFDA (8.5 μM) dissolved in HBSS containing N-co-nitro-L-arginine methyl ester (L-NAME, 10 μM) for 10 minutes at 37° C. to prevent the formation of NO. After several washes with HBSS to remove excess dye, fluorescence is monitored by using 480 nm excitation and 540 nm emission wavelength. DCF fluorescence is standardized to the number of viable cells using the Alamar Blue test according to the manufacturer's instructions (Biosource, Nivelles, Belgium). […] The absorbance is then measured at the wavelength of 580 nm.
Optionally, ROS production can be assessed by flow cytometric analysis of CM-H2DCFDA stained cells. The cells intoxicated with paracetamol are detached and harvested by trypsinisation, collected by centrifugation and resuspended in HBSS at a concentration of 1×10^6 cells/ml. Cells are then loaded with 8.5 μM CM-H2DCFDA for 15 minutes in the dark at 37° C. before stimulation. The DCF fluorescence is monitored by analyzing 10,000 cells using 480 nm excitation and 540 nm emission wavelengths in a flow cytometer (Partec, Muenster, Germany).
The hepatocytes are then washed once with HBSS (Hanks' Balanced Salt Solution, Gibco) and incubated with MitoQ in concentration range of 0.5 to 10 μM or the respective amount of DMSO (Sigma). After 15 min DCF is added to the cells (final concentration of 8 μM) and cells are incubated with the dye for 10 min. After loading the media is removed and fresh HBSS is added containing MitoQ and CoCl2 (100 μM).
After 3 subsequent washing the cells are equilibrated in plates containing 1 ml of 50 mmol/L HEPES (pH 7.4), 135 mmol/L NaCl, 1 mmol/L CaCl2, 1 mmol/L MgCl2, 5 mmol/L KCl, 5.5 mmol/L glucose, and 5 μmol/L lucigenin as the electron acceptor. The light reaction between superoxide and lucigenin is detected using a chemiluminescence reader (Lumistar, BMG laboratories, Germany). The chemiluminescence signal is expressed as average counts per minute and normalized to cell number as determined by cell counter (Casy Technology Instrument, Schärfe-System, Germany).

[6] = test system: carprofen- and DDC-intoxicated mice livers; test: Hepatocyte damage in mouse liver upon 3 days exposure to carprofen in combination with DDC (histology); type: in vivo; conditions: carprofen 5 mg/kg + DDC 0.1% in diet, MitoQ 300 nmol/animal in PBS/1% DMSO
Source text: Controls receive 300 μPBS only.

[7] = test system: mitochondria within isolated cells; conditions: in vitro; cited from earlier work
[8] = test system: fatty acid binding protein (FABP); test: Western blot of fatty acid binding protein in liver extracts of intoxicated mice; type: in vivo, mouse; conditions: drug-intoxicated (paracetamol or carprofen) animals; versus non intoxicated vehicle controls
Procedure: as §1, with “Amersham). The membrane is blocked for 1 hour at room temperature in blocking solution [5% milk in TBS-T (25 mM Tris-HCl pH 7.4, 137 mM NaCl, 3 mM KCl, comprising 0.1% Tween-20)] and incubated with the primary antibody solution (prepared in TBS-T/1% milk) at 4° C. overnight with agitation.” for “Amersham).”
Furthermore, the protein expression level(s) of fatty acid binding protein (FABP) representing a sensitive marker for hepatocyte damage (Monbaliu D. et al., 2005, Transplant Proc. 37(1):413-416) is determined.

[9] = cited from earlier work; for gross signs of toxicity: fed in drinking water two or three days, 500 μM or 1 mM MitoQ or MitoS, 500 μM MitoVit E; for safety of long term feeding to mice: long term basis, potentially therapeutically effective concentrations within brain, heart, liver, muscle
[10] = test system: mice intoxicated with valproic acid; test: Long term (three weeks) valproic acid intoxication, liver histology; type: in vivo, mouse; conditions: valproic acid 0.71% weight/volume for three weeks; 1.25 mg/kg daily i.p. or i.v.; compared to controls
Procedure: Chronic liver damage can be assessed in mice intoxicated with valproate (0.71% weight/volume) for up to 21 days when fatty degeneration of hepatocytes, activation of Kupffer cells, inflammation and hepatocyte necrosis can be detected (Raza M. 2000, Int J Tissue React., 22(1): 15-21).
In long term experiments by using mice intoxicated for three weeks with valproic acid (0.71% weight/volume), the presence (or absence) of cell damage in liver samples of treated animals is determined and compared to the corresponding control groups of animals.

[11] = paracetamol 500 mg/kg, 1 day, MitoQ 300 nmol/animal in PBS/1% DMSO, simultaneous, 24 hours pretreatment
[12] = concentration used for treatment of intoxicated immortalized hepatocytes, read-out: EC50

Compound | inflammatory cells [1] | liver morphology [1] | protoporphyrin accumulation in the bile ducts [1] | reduction of liver damage by serum liver enzymes (alanine- and aspartate aminotransferase) [2] | EC50 [5, 12] | ROS formation [5] | accumulation by mitochondria [7] | gross signs of toxicity [9] | safety of long term feeding to mice [9] | also measured
MitoQ | absent | restores normal liver morphology | persists | significant reduction | 1 µM | significant reduction | rapidly and selectively accumulated | without any gross signs of toxicity | could be fed safely | blood congestion in the sinusoids [3, 11]: reduces blood congestion in the sinusoids; necrotic hepatocytes [3, 11]: only few single necrotic cells are seen; liver architecture (strands of hepatocytes bordered by sinusoids) ([3]; short-term experiments overall (paracetamol; carprofen + DDC), compared to vitamin E or untreated animals): is again visible; HO-1 protein expression ([4]; compared to paracetamol intoxicated group of animals): significant reduction; HO-1 protein expression ([4]; compared to vitamin E treated mice): less significant reduction; inflammatory cells [6]: absent; liver morphology [6]: restores normal liver morpohology; FABP protein expression [8]: reaches almost control mice FABP protein expression values; also recorded: reach almost control mice FABP expression values; degree of cell damage [10]: greatly reduced
CCOC(=O)C1=C(C)NC(C)=C(C(=O)OCC)C1C [DDC] | – | – | – | – | – | – | – | – | – | EC50 ([5]; intoxicant, hepatocytes incubated up to 72 hours in culture medium (DMEM and 10% FCS)): 50 μg/ml of medium
C[P+](c1ccccc1)(c1ccccc1)c1ccccc1 [TPMP, reference compound] | – | – | – | – | – | – | – | – | could be fed safely | –
Cc1c(C)c2c(c(C)c1O)CCC(C)(CC[P+](c1ccccc1)(c1ccccc1)c1ccccc1)O2 (stereo not drawn) [MitoVit E, [2-(3,4-dihydro-6-hydroxy-2,5,7,8-tetramethyl-2H-1-benzopyran-2-yl)ethyl]-triphenylphosphonium bromide] | – | – | – | – | – | – | rapidly and selectively accumulated | without any gross signs of toxicity | could be fed safely | maximum tolerated dose ([9]; 500 μM in drinking water): 60 mg/kg/day
vitamin E [reference compound] | still present in the periportal area | only partially restores normal liver morphology | persists | less significant effect | 10 µM | significant reduction | – | – | – | –

From patent publication US20070161609A1, “Use of mitochondrially targeted antioxidant in treatment and prevention of drug-induced liver disease” (priority 2006, published 2007)
